The test system of series [1] is VEGF expression in THP-1 cells. The experiment in a line: VEGF mRNA induction in THP-1 cells, quantitative real-time PCR (Example 4). It counts as cell-based, human. The note with it: 0.01, 0.06, and 10 ng/ml; 2.5 h. How it is done: The ability of the Relaxin 2 fusion polypeptides to induce the expression of VEGF, a known downstream target of Relaxin 2 (Xiao et al., 2013), was assayed. The expression of VEGF RNA in THP-1 cells (Catalogue number TIB-202, ATCC) was analyzed by quantitative real-time PCR. A total of […] was seeded in a 24-well flat bottom plate (Catalogue number 353226, Corning) in 400 μl test media (RPMI-1640 without phenol red, 0.5% FBS, 1% Pen/Strep and 0.05 mM of 2-mercaptoethanol). After 24 h incubation at 37° C., 5% CO2, human relaxin-2 (Catalogue number 3956-RN, R&D Systems) or Fc-hRelaxin-2 fusion polypeptides, were added to the cells in the plate for 2.5 h at 37° C. RNA isolation and purification from THP-1 cells was performed using Qiagen's QiaShredder (Catalogue number 79656, Qiagen) and RNA Plus Mini Kit (Catalogue number 74134, Qiagen), following the manufacturer's protocol. The mRNA concentrations were measured by NanoDrop (Thermofisher) and samples were normalized to the same starting concentration (range between RT-PCR set up; 50-20 ng/μl). […] The relative fold change in VEGF mRNA level was calculated by the comparative Ct method using GAPDH expression for normalization. Results were calculated as fold changes over no treatment control. […] Data was analyzed by paired two tailed t-test utilizing Prism GraphPad, V6.

For series [2], the system named is isoproterenol-induced cardiac hypertrophy. The experiment in a line: Isoproterenol-induced cardiac hypertrophy and fibrosis in mice (Example 8). It counts as in vivo, C57BL/6J male mice. Conditions: given concomitantly with isoproterenol 15 mg/kg/day, 2 weeks. As to the method:
A total of 6 study groups with n=8 mice (C57BL/6J male mice) per group were performed. The groups were: vehicle, Fc_hRLX2_15-15AA, isoproterenol, isoproterenol+enalapril, isoproterenol+recombinant human relaxin 2, and isoproterenol+Fc_hRLX2_15-15AA. Drugs and vehicle were delivered by Alzet minipumps (model 1002; rate: 0.25 μl/hr (±0.05), 6 μl one day @37° C.) or subcutaneous injection for Fc_hRLX2_15-15AA.
Isoproterenol was made as follows: A 500 mM solution (123.9 mg/ml) freshly in 0.0002% Na-Asc saline, […] filtered). The final [Iso] concentration in minipump: 15 mg/kg/day=15 mg/247.72/6 μl/1000 g=10.1 mM per gram of body weight (BVV). Vehicle was 0.0002% Na-ascorbate, Sigma catalog #A7631.
Enalapril was made as follows: Enalapril is used as maleate salt, MW of 492.52, Sigma catalog #E6888. A 200 mM stock solution (98.5 mg/ml) freshly in methanol, […] filtered. The final concentration in minipump: 2.5 mg/kg/day=2.5 mg/492.52/6 μl/1000 g=0.846 mM per gram of body weight (BVV), i.e., one minipump for 30 gram of mouse will need 19.0 μl of 200 mM Ena (150 μl×0.846/200 mM×30 g BW).
Isoproterenol+Enalapril: Isoproterenol and enalapril made as described above were included in the pump.
At the end of the study, body weight, heart weight, lung weight, and tibia length were measured. Additionally, histology and collagen assays were performed using the heart samples.
Fibrosis was measured based on the detection of hydroxyproline (Total collagen assay, QuickZyme Biosciences). Histology (H & E and Masson Trichrome) was also carried out on formalin treated heart tissue following 2 weeks of treatments.

The conditions of series [3]: intravenous administration, cited from earlier work.
The nature of series [4]: Mouse PK profile, FcRn transgenic mouse, Fc capture and Relaxin detection ELISA (Example 6). It counts as in vivo. Conditions: IV or SC, 6 mg/kg.

Substitutions are numbered along the chain they refer to.

“rhRLX2: Recombinant human Relaxin-2, R&D Systems (catalogue 6586-RN-025; 3956-RN in VEGF assay), positive control; mature A/B chain array (chain 1 QLYSALANKCCHVGCTKRSLARFC; chain 2 DSWMEEVIKLCGRELVRAQIAICGMSTWS)”: the “VEGF transcripts in THP-1 cells vs no treatment control” value in series [1] is “significantly increased”. Also, in series [2], the “isoproterenol-induced increase in cardiac hypertrophy (HW/TL)” value is “significantly attenuated” and the “isoproterenol-induced increase in fibrosis (collagen content)” value is given as “significantly attenuated”.
Take `CCOC(=O)[C@H](CCc1ccccc1)N[C@@H](C)C(=O)N1CCC[C@H]1C(=O)O` [enalapril]: in series [2], the “isoproterenol-induced increase in cardiac hypertrophy (HW/TL)” value is listed as “significantly attenuated” and the “isoproterenol-induced increase in fibrosis (collagen content)” value is on record as “significantly attenuated”.
For the molecule serelaxin, in series [3], the “proportion of patients with significant blood pressure drop (>40 mm Hg)” value is reported as “approximately one third”. The “markers of cardiac, renal and hepatic damage and congestion” value in series [3] (patients) was “improved”.

B1: Fc-YTE-hRLX2-15-15AA: As Fc_hRLX2_15-15AA with YTE mutations in Fc; SEQ ID NO. 22 (protein)
chain: DKTHTCPPCPAPELLGGPSVFLFPPKPKDTLYITREPEVTCVVVDVSHEDPEVKFNWYVDGVEVHNAKTKPREEQYNSTYRVVSVLTVLHQDWLNGKEYKCKVSNKALPAPIEKTISKAKGQPREPQVYTLPPSRDELTKNQVSLTCLVKGFYPSDIAVEWESNGQPENNYKTTPPVLDSDGSFFLYSKLTVDKSRWQQGNVFSCSVMHEALHNHYTQKSLSLSPGKGGGGSGGGGSGGGGSQLYSALANKCCHVGCTKRSLARFCGGGGSGGGGSGGGGSSWMEEVIKLCGRELVRAQIAICGMSTWS
modifications: fusion protein
Regarding B1, the “half-life offered by the YTE mutations” value in series [4] was “extended half-life”.

B2: Fc-YTE-TM_hRLX2_15-15A: As Fc_hRLX2_15-15AA with YTE and TM mutations in Fc; SEQ ID NO. 24 (protein)
chain: B1 chain with L14F, L15E, P111S
modifications: fusion protein
Consider B2, for which the “half-life offered by the YTE mutations” value in series [4] is recorded as “extended half-life”.

B3: Fc-YTE-FQQ_hRLX2_15-15A: As Fc_hRLX2_15-15AA with YTE and FQQ mutations in Fc; SEQ ID NO. 26 (protein)
chain: B1 chain with L14F, L15Q, K102Q
modifications: fusion protein
As to B3, in series [4], the “half-life offered by the YTE mutations” value is given as “extended half-life”.

The values are drawn from patent US11845782B2, “Relaxin fusion polypeptides and uses thereof” (MedImmune Limited, priority 2017, dated 2023).
